PubChem BioAssay AID248 (DTP/NCI, 2004)
Several values for one entry are separate records, joined by “and”; a condition that tells them apart may be missing. Equal entries are not always repeated. Toxic doses and inconclusive results are not listed. Rule as the data show it: active = T/C of 150% or more; inactive = T/C below 125%.

System: L1210 leukemia ip in BDF1 mice, survival T/C
Assay: NCI In Vivo Anticancer Drug Screen. Data for tumor model L1210 Leukemia (intraperitoneal) in B6D2F1 (BDF1) mice
Conditions: endpoint: mean survival time, higher = longer survival
Procedure, shortened: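 Survival endpoint. Drug-treated group vs vehicle group, expressed as T divided by C. Tumor passaged by transplantation.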

[1] = dose: 100.0 mg/kg/injection, schedule: Q01DX009 (ip), vehicle: Klucel (hydroxypropylcellulose) (HPC)
[2] = dose: 100.0 mg/kg/injection, schedule: Q04DX003 (ip), vehicle: Klucel (hydroxypropylcellulose) (HPC)
[3] = dose: 200.0 mg/kg/injection, schedule: Q01DX009 (ip), vehicle: Klucel (hydroxypropylcellulose) (HPC)
[4] = dose: 200.0 mg/kg/injection, schedule: Q04DX003 (ip), vehicle: Klucel (hydroxypropylcellulose) (HPC)
[5] = dose: 100.0 mg/kg/injection, schedule: Q04DX002 (ip), vehicle: Klucel (hydroxypropylcellulose) (HPC)
[6] = dose: 200.0 mg/kg/injection, schedule: Q04DX002 (ip), vehicle: Klucel (hydroxypropylcellulose) (HPC)
[7] = dose: 400.0 mg/kg/injection, schedule: Q04DX002 (ip), vehicle: Klucel (hydroxypropylcellulose) (HPC)
[8] = dose: 5.0 mg/kg/injection, schedule: Q01DX001 (ip), vehicle: saline
[9] = dose: 10.0 mg/kg/injection, schedule: Q01DX001 (ip), vehicle: saline
[10] = dose: 100.0 mg/kg/injection, schedule: Q04DX003 (ip), vehicle: saline with Tween-80
[11] = dose: 100.0 mg/kg/injection, schedule: Q01DX009 (ip), vehicle: saline
[12] = dose: 400.0 mg/kg/injection, schedule: Q01DX009 (ip), vehicle: Klucel (hydroxypropylcellulose) (HPC)
[13] = dose: 400.0 mg/kg/injection, schedule: Q04DX003 (ip), vehicle: Klucel (hydroxypropylcellulose) (HPC)
[14] = dose: 100.0 mg/kg/injection, schedule: Q04DX002 (ip), vehicle: saline with Tween-80
[15] = dose: 200.0 mg/kg/injection, schedule: Q04DX002 (ip), vehicle: saline with Tween-80

Measured: T/C

COc1ccc(C)cc1NC(=S)NC(=O)c1cccc2ccccc12
inactive: dose: 50.0 mg/kg/injection, schedule: Q01DX009 (ip), vehicle: Klucel (hydroxypropylcellulose) (HPC) 93 % of control | [1] 87 % of control | [2] 95 % of control | [3] 88 % of control | [4] 94 % of control | dose: 300.0 mg/kg/injection, schedule: Q01DX009 (ip), vehicle: Klucel (hydroxypropylcellulose) (HPC) 104 % of control and 87 % of control

NOC(=O)c1ccc([N+](=O)[O-])cc1
inactive: [5] 94 % of control | [6] 94 % of control | [7] 94 % of control

CC(=O)[O][Hg][CH]1CCCCC1O (stereo unspecified)
inactive: [8] 103 % of control | [9] 95 % of control | dose: 12.3 mg/kg/injection, schedule: Q01DX009 (ip), vehicle: saline with Tween-80 106 % of control | dose: 20.0 mg/kg/injection, schedule: Q01DX001 (ip), vehicle: saline 97 % of control | dose: 40.0 mg/kg/injection, schedule: Q01DX001 (ip), vehicle: saline 95 % of control | dose: 80.0 mg/kg/injection, schedule: Q01DX001 (ip), vehicle: saline 102 % of control

c1ccc([Si](c2ccccc2)(c2ccccc2)c2cccs2)cc1
inactive: [10] 93 % of control | dose: 200.0 mg/kg/injection, schedule: Q04DX003 (ip), vehicle: saline with Tween-80 90 % of control | dose: 400.0 mg/kg/injection, schedule: Q04DX003 (ip), vehicle: saline with Tween-80 88 % of control

CCOC(=O)C1CC2(OCCO2)c2c(OC)ccc(Cl)c2C1C (stereo unspecified)
inactive: dose: 75.0 mg/kg/injection, schedule: Q01DX001 (ip), vehicle: saline 102 % of control | dose: 150.0 mg/kg/injection, schedule: Q01DX001 (ip), vehicle: saline 96 % of control | dose: 300.0 mg/kg/injection, schedule: Q01DX001 (ip), vehicle: saline 94 % of control

O=C1C2CC3C=CC1C(C3)C2 (stereo unspecified) (tested in a mixture with another compound)
inactive: dose: 100.0 mg/kg/injection, schedule: Q01DX001 (ip), vehicle: Klucel (hydroxypropylcellulose) (HPC) 104 % of control | dose: 200.0 mg/kg/injection, schedule: Q01DX001 (ip), vehicle: Klucel (hydroxypropylcellulose) (HPC) 103 % of control | dose: 400.0 mg/kg/injection, schedule: Q01DX001 (ip), vehicle: Klucel (hydroxypropylcellulose) (HPC) 97 % of control

O=c1cc[nH]c2cc(Cl)ccc12
inactive: dose: 50.0 mg/kg/injection, schedule: Q01DX009 (ip), vehicle: saline 102 % of control | [11] 97 % of control

CCC1C(=O)OCc2c1cc1n(c2=O)Cc2cc3ccccc3nc2-1 (stereo unspecified)
inactive: dose: 2.5 mg/kg/injection, schedule: Q01DX001 (ip), vehicle: saline 102 % of control | [8] 107 % of control | [9] 102 % of control | dose: 15.0 mg/kg/injection, schedule: Q01DX001 (ip), vehicle: saline 118 % of control

CCOC(=O)C(C#N)(CC)C1=CCCCC1 (stereo unspecified)
inactive: [1] 106 % of control | [2] 97 % of control | [3] 93 % of control | [4] 97 % of control | [12] 97 % of control | [13] 102 % of control

CCOC(=O)COc1ccc2c(C)c(CCN(CC)CC)c(=O)oc2c1
inactive: dose: 100.0 mg/kg/injection, schedule: Q01DX001 (ip), vehicle: saline 103 % of control | dose: 200.0 mg/kg/injection, schedule: Q01DX001 (ip), vehicle: saline 92 % of control | dose: 400.0 mg/kg/injection, schedule: Q01DX001 (ip), vehicle: saline 96 % of control

CP1(=O)CCC(=O)C1Br (stereo unspecified)
inactive: dose: 50.0 mg/kg/injection, schedule: Q04DX002 (ip), vehicle: saline with Tween-80 98 % of control | [14] 95 % of control | [15] 91 % of control

COc1ccc(/C=N/NC(=O)c2ccc(O)cc2)cc1
inactive: [1] 100 % of control | [3] 98 % of control | [12] 94 % of control

CC1(C)C2CC3C(C(=O)O)C(C(=O)O)CCC3(C2)C1OC=O (stereo unspecified)
inactive: [2] 99 % of control | [4] 92 % of control | [13] 103 % of control

O=NN(CC(=O)O)Cc1ccc(Cl)cc1
inactive: dose: 100.0 mg/kg/injection, schedule: Q01DX Z (ip), vehicle: saline 102 % of control | dose: 200.0 mg/kg/injection, schedule: Q01DX Z (ip), vehicle: saline 102 % of control

O=CC(O)C(Cl)C(Cl)C(O)CCl (stereo unspecified)
inactive: [14] 98 % of control | [15] 98 % of control | dose: 400.0 mg/kg/injection, schedule: Q04DX002 (ip), vehicle: saline with Tween-80 102 % of control

CC(=O)OCCc1ccccc1C
inactive: [5] 112 % of control | [6] 104 % of control | [7] 101 % of control

O=S(=O)(/C=C\c1ccccc1)/C=C/c1ccccc1
inactive: dose: 25.0 mg/kg/injection, schedule: Q04DX003 (ip), vehicle: saline with Tween-80 96 % of control | dose: 50.0 mg/kg/injection, schedule: Q04DX003 (ip), vehicle: saline with Tween-80 94 % of control | [10] 92 % of control

Oc1cccc2ccc(N/N=C/c3ccc4cccnc4c3O)nc12
inactive: dose: 100.0 mg/kg/injection, schedule: Q01DX001 (ip), vehicle: carboxymethylcellulose (CMC) 93 % of control | dose: 200.0 mg/kg/injection, schedule: Q01DX001 (ip), vehicle: carboxymethylcellulose (CMC) 102 % of control | dose: 400.0 mg/kg/injection, schedule: Q01DX001 (ip), vehicle: carboxymethylcellulose (CMC) 93 % of control

O=C(Nc1ccccc1F)N(CC(O)c1ccccc1)C1CCCCC1 (stereo unspecified)
inactive: [1] 97 % of control | [3] 95 % of control | [12] 94 % of control

Nc1ccncn1
inactive: dose: 100.0 mg/kg/injection, schedule: Q01DX005 (ip), vehicle: saline 94 % of control | [11] 99 % of control | dose: 100.0 mg/kg/injection, schedule: Q04DX002 (ip), vehicle: saline 96 % of control | dose: 200.0 mg/kg/injection, schedule: Q01DX005 (ip), vehicle: saline 97 % of control | dose: 200.0 mg/kg/injection, schedule: Q01DX009 (ip), vehicle: saline 96 % of control | dose: 200.0 mg/kg/injection, schedule: Q04DX002 (ip), vehicle: saline 96 % of control | dose: 400.0 mg/kg/injection, schedule: Q01DX005 (ip), vehicle: saline 105 % of control | dose: 400.0 mg/kg/injection, schedule: Q01DX009 (ip), vehicle: saline 96 % of control | dose: 400.0 mg/kg/injection, schedule: Q04DX002 (ip), vehicle: saline 100 % of control

CCC(C)N(C)N=Nc1ccc(C(N)=O)cc1 (stereo unspecified)
inactive: dose: 178.0 mg/kg/injection, schedule: Q01DX001 (ip), vehicle: other 104 % of control | dose: 267.0 mg/kg/injection, schedule: Q01DX001 (ip), vehicle: other 112 % of control
